Structures can show the parent of a compound that is named as a salt.
Key:
mice = test: Acute toxicity test; type: in vivo, mice (ICR); conditions: i.p.
Method: The pH was adjusted to 7.0 by use of 5 N NaOH. Solutions having lower concentrations were prepared by dilution with physiological saline. Each solution (10 μl) was intraperitoneally injected to mice (ICR, female, 6-weeks old, 29 g), and the survival ratio was obtained.

[1] = test system: hepatic cirrhosis induced by N-nitrosodiethylamine, nodules on liver surface; test: Effect on hepatic cirrhosis (2): nodule formation on the liver surface; type: in vivo, Sprague-Dawley rats
Method: (§1) Groups Sprague-Dawley male rats (7 weeks old; Nippon SLC) were purchased and kept for five days before being used in the test. Each group consisted of 10 rats, and four groups were used in the test.
(§2) An N-nitrosodiethylamine solution (5.32 ml; which corresponds to 5 g due to the specific gravity of 0.94) was measured into a measuring cylinder by use of a glass pipette, and physiological saline was added to make the total volume 100 ml. Subsequently, the solution was sonicated for 2 minutes to prepare a uniform N-nitrosodiethylamine solution (50 mg/ml). The solution was prepared just before use. N-nitrosodiethylamine was intraperitoneally administered to each rat at a dose of 100 mg/2 ml/kg once in the morning on days 0, 7, 14, 21, and 28 (day 0: the first day of administration of N-nitrosodiethylamine).
An ethanolamine hydrochloric acid salt was measured and dissolved in a certain amount of distilled water for injection use. The solution was suitably diluted and administered to each rat by oral route by use of an oral probe for rats.
The liver was visually observed, and then a portion thereof was fixed with 10% neutral formalin buffer. Portions of fixed samples were frozen and stored at -80° C. in a tightly-sealed container.
The formation of nodules was evaluated by five rankings.

[2] = test system: hydroxyproline, fibrosis of the liver; test: Effect on hepatic cirrhosis (2): hydroxyproline in liver as index of fibrosis; type: in vivo, Sprague-Dawley rats
Method: as §1, §2
An ethanolamine hydrochloric acid salt was measured and dissolved in a certain amount of distilled water for injection use. […]
The frozen liver tissue (1 g) was weighed and homogenized in a Teflon homogenizer together with pure water (3 ml). […] As an index of fibrosis, the amount of hydroxyproline was used, and the hydroxyproline content per g of liver tissue was calculated for comparison.
(3) The amount of hydroxyproline, serving as an index of fibrosis of the liver, was determined by an amino acid analysis.

[3] = test system: hepatic cirrhosis induced by N-nitrosodiethylamine, clear cell foci; test: Effect on hepatic cirrhosis (2): formation of clear cell foci; conditions: N-nitrosodiethylamine 100 mg/kg i.p., days 0, 7, 14, 21, 28
serum transaminase GOT = test: Serum GOT in mice with liver disorder induced by carbon tetrachloride; type: in vivo, ddY mice
Method: (§3) Carbon tetrachloride (5 ml, Wako Pure Chemicals) was put in a glass vial, and Panasate 800 (45 ml, Nippon Yushi Chemicals Co, Ltd.) was added to prepare a 10% (v/v) solution.
(§4) Subsequently, the total amount was made to 50 ml. An aliquot of 2 ml was diluted in 38 ml of physiological saline.
(§5) One group consisted of 10 mice. For 24 hours prior to the administration of tetrachloride, each mouse was fasted by being fed water only. 10% carbon tetrachloride/Panasate solution was intraperitoneally administered to each mice at a dose of 1 ml/kg.
(§6) Blood was collected from the abdominal aorta by use of 1-ml disposable syringes (Terumo). The blood, dispensed into 1.5 ml Eppendorf tubes, was subjected to centrifugal separation at 5,000 rpm for 10 minutes to thereby obtain serum. The activity of transaminase (GOT, GPT) in the serum thus obtained was measured. The measurement was performed by use of a Cobas Mira System (Baxter).

serum transaminase GPT = test: Serum GPT in mice with liver disorder induced by carbon tetrachloride; type: in vivo, ddY mice
Method: as §3, §4, §5, §6

liver necrosis = test: Histopathological profile of liver in mice with carbon tetrachloride liver disorder; type: in vivo, ddY mice; conditions: ethanolamine administration
Method: as §3, §4, §5

rat hepatocyte = test: 3H-TdR uptake by rat hepatocytes in primary culture (hepatocyte growth promoting activity); conditions: in the presence of either the high molecular weight factor extract or EGF
Method: In separation and identification of the low molecular weight factor showing hepatocyte proliferation promoting activity derived from epithelial mucosa of the bovine small intestine, the rat hepatocyte system in primary culture was used. To this culture system, a fraction of a crude extract of bovine small intestine epithelial mucosa in the course of purification was added in the presence of high molecular weight factor extract (1%) and insulin (10 μg/ml) or in the presence of EGF (20 ng/ml) and insulin (10 μg/ml), to thereby establish an assay system for measuring the uptake of ^3 H-TdR into DNA of rat hepatocyte nuclei.
Fractions each amounting 15 ml was added to the above-mentioned assay system and the uptake of ^3 H-TdR was measured.

[4] = test system: hepatocytes, tubular epithelial cells, dermal keratinocytes and melanocytes, type II epithelial cells of pulmonary alveolus, epithelial cells of gastric mucosa; conditions: cited from earlier work
cancer cells = conditions: cited from earlier work
[5] = N-nitrosodiethylamine 100 mg/kg i.p., days 0, 7, 14, 21, 28

## NCCO [EA-HCl, monoethanolamine-HCl]
mice; 0.5 g/kg (calculated as EA)
  Survival, 1 day after admin.: 4/4
  Survival, 6 days after admin.: 4/4
  Survival, administration (day): 4/4
mice; 1.25 g/kg (calculated as EA)
  Survival, 1 day after admin.: 3/3
  Survival, 6 days after admin.: 3/3
  Survival, administration (day): 3/3
mice; 2.5 g/kg (calculated as EA)
  Survival, administration (day): 0/4
mice; 5.0 and 2.5 g/kg
  time to death: ≤ 30 min
mice; 5.0 g/kg (calculated as EA)
  Survival, administration (day): 0/4
mice; doses equal to or less than 1.25 g/kg
  survival at six days: alive when six days had passed

## CCN(CC)N=O [N-nitrosodiethylamine, reference compound]
[1]; [5]
  nodules in the surface of the liver: presented clear nodules in the surface of the liver
[2]; [5]
  hydroxyproline level: significantly elevated
[3]
  formation of clear cell foci: considerable formation of clear cell foci

## NCCO [ethanolamine, monoethanolamine]
Serum transaminase GOT; intraperitoneal, 2.8 mg/kg
  GOT level: significantly decreased
Serum transaminase GOT; peroral, 16 mg/kg
  GOT level: significantly decreased
Serum transaminase GPT; intraperitoneal, 2.8 mg/kg
  GPT level: significantly decreased
Serum transaminase GPT; peroral, 16 mg/kg
  GPT level: significantly decreased
Liver necrosis
  area of necrosis in histopathological profile of the liver: a tendency that the area of necrosis was reduced
[1]; 15 mg/kg and 50 mg/kg, Dunnett's test
  formation of nodules, difference vs N-nitrosodiethylamine group: statistically significant
[1]; oral administration
  prevention of hepatic cirrhosis induced by N-nitrosodiethylamine: can be prevented by oral administration of ethanolamine
[1]; oral, 15 and 50 mg/kg, visual observation
  formation of nodules, dose dependence: the higher the dose of ethanolamine, the less significant the formation of nodules
[2]; oral, 15 and 50 mg/kg
  amount of hydroxyproline, dose dependence: the higher the dose of ethanolamine, the lower the amount of hydroxyproline
Rat hepatocyte
  3H-TdR uptake, growth-stimulating effect: synergistic growth-stimulating effects

## HGF: hepatocyte growth factor (HGF)
[4]
  mitogenic activity: potent mitogen
[4]; motion of cells
  motogen function: function as a motogen to stimulate motion of cells
Cancer cells
  proliferation of cancer cells: action to suppress proliferation of cancer cells

Reference: patent publication US5972914A, “Remedies for liver diseases” (Meiji Milk Products Co., Ltd., priority 1998, dated 1999)
